Legend:
[1] = molecular target: T1, Human 5-HT1A receptor (Homo sapiens, UniProt P08908); test: Human 5-HT1A receptor affinity, [3H]WAY100635 radioligand binding; parameters: expressed in transfected cells; host or cells: CHO; conditions: CHO cell membranes expressing 5-HT1A, [3H]WAY100635 0.5 nM, 37° C. 45 minutes; assay b); read-out: pKi against 5-HT1A (converted)
T1 sequence (P08908 1-422): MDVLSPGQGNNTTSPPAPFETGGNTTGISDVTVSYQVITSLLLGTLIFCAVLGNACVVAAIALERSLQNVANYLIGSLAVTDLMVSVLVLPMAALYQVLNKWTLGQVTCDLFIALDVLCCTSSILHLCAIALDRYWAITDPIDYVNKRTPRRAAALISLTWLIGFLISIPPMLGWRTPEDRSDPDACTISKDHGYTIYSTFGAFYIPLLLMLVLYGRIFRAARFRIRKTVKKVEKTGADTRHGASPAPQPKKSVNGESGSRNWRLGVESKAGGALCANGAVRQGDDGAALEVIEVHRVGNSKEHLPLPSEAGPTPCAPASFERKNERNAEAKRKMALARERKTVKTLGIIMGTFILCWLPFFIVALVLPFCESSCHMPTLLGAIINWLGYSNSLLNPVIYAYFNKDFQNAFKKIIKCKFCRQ
Protocol: (§1) b) Human 5-HT1A, 5-HT1B and 5-HT1D Receptor Affinity
(§2) The affinities of the compounds of the invention for the 5-HT1A, 5-HT1B and 5-HT1D receptors may be determined by the following assay.
(§3) Homogenise chinese hamster ovary (CHO) cells expressing 5-HT1A receptors (4×10^7 cells/ml) in Tris buffer and store in 1 ml aliquots. Homogenise CHO cells expressing 5-HT1B receptors (4×10^7 cells/ml) in Tris buffer and store in 1.5 ml aliquots. Homogenise CHO cells expressing 5-HT1D receptors (1×10^8/ml) in Tris buffer and stored in 1 ml aliquots. The binding assays are carried out in a total volume of 500 μl. For each compound to be tested make up seven solutions ranging in concentration from 0.3 mM to 0.3 nM (100× final concentrations). Dispense 5 μl of solution containing the test compound per well and add 100 μl of radioligand at 5× final desired assay concentration, i.e. [^3H]-5-HT 15 nM (final assay concentration: 3 nM) in Tris Mg HCl buffer (pH 7.7) for 5-HT1B/1D receptors and [^3H]WAY100635 2.5 nM (final assay concentration: 0.5 nM) in Tris Mg HCl buffer (pH 7.7) containing 150 μM GPP(NH)p (final assay concentration: 30 μM) for 5-HT1A receptors. Add 400 μl/well of a cell membrane suspension in Tris Mg HCl buffer (pH 7.7) to make a total volume of 505 μl. Incubate at 37° C. for 45 minutes. […] Measure radioactivity using Topcount scintillation counting. […]

[2] = molecular target: T1, Human 5-HT1A receptor; test: Human 5-HT1A receptor functional potency, GTPγS binding protocol; format: biochemical; parameters: expressed in transfected cells; conditions: GTPγS binding, membranes of HEK293 cells transfected with human 5-HT1A; assay a); read-out: fpKi against 5-HT1A (converted)
Protocol: a) Human 5-HT1A Receptor Functional Potency
The functional potency of the compounds of the invention for the 5-HT1A receptor may be determined by the following GTPγS binding protocol. Cells used in the study are CHO Cells and Human Embryo Kidney (HEK293). Transfect cells with DNA coding for human receptor as follows: HEK293—5-HT1A. Initially dissolve test compounds in 100% dimethyl sulfoxide to a concentration of 10 mM. Serially dilute the test compounds in 100% dimethyl sulphoxide using a Biomek FX in 384 well assay plates, so that the final top concentration of test compound is 3 μM in the assay. Add the test compound at 1.0% total assay volume (TAV) to a solid, white, 384 well assay plate (Griener). Add 50% TAV of precoupled (for 60 mins @ RT) membranes (6 ug/well), Wheatgerm Agglutinin Polystyrene Scintillation Proximity Assay beads (RPNQ0260 Amersham International) (0.25 mg/well) in 20 mM HEPES pH 7.4, 100 mM NaCl, 3 mM MgCl2 and 10 μM GDP and saponin 60 m/well FAC was also added. The third addition may be either a 20% TAV addition of either; buffer for agonist format, or EC80 final assay concentration (FAC) of agonist, prepared in assay buffer, 5HT, for antagonist format.
Start the assay by the addition of 29% TAV of GTPγS 0.38 nM FAC.
After all additions, incubate the assay plates at RT for 2-3 hours. […] Read the assay plates between 3-6 hours after the final addition.

[3] = molecular target: T2, Human 5-HT1B receptor (Homo sapiens, UniProt P28222); test: Human 5-HT1B receptor affinity, [3H]-5-HT radioligand binding; conditions: CHO cell membranes expressing 5-HT1B, [3H]-5-HT 3 nM, 37° C. 45 minutes; assay b); read-out: pKi against 5-HT1B (converted)
T2 construct: expressed in transfected cells; host or cells: CHO
Protocol: as §1, §2, §3

T2 sequence (P28222 whole entry): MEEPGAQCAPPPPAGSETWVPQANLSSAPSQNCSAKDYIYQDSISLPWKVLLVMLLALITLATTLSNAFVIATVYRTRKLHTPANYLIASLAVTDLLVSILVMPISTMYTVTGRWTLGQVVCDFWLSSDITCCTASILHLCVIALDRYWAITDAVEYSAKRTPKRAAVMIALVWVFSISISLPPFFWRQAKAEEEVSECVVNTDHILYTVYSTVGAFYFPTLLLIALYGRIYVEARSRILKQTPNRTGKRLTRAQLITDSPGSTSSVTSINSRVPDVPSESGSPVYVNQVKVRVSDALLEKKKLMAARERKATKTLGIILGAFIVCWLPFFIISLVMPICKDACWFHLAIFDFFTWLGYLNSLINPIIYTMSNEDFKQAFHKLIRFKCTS

COc1cccn(CCCCN2CCN(c3cccc4nc(C)ccc34)CC2)c1=O [compound of formula (I), 3-(methyloxy)-1-{4-[4-(2-methyl-5-quinolinyl)-1-piperazinyl]butyl}-2(1H)-pyridinone]
Ki [1]: 0.501 nM | Ki [2]: 0.501 nM | Ki [3]: 200 nM
